Reference: PMC11213733, “Computational approaches identify a transcriptomic fingerprint of drug-induced structural cardiotoxicity” (Cell Biology and Toxicology, 2024)
Read-outs that look alike come from different tables or passages of the source.

Experiments:
[1] = system: cardiac microtissues; test: Ingenuity Pathway Analysis over-representation of differentially expressed genes (activation Z-score); format: cell-based, human; conditions: 48hr high; Group 2
[2] = system: cardiac microtissues; test: Targeted qRT-PCR of ATAD3C, CDH13, IL6, PTX3, SLC7A5, UCHL1 in cardiac microtissues; format: cell-based, human; conditions: Sorafenib 3.74 µM, Sunitinib 3.53 µM, Dasatinib 10.8 µM; for activity at 3.53 µM: Homo sapiens, read-out: % of control
Method: The experiment was performed with three technical replicates across 1-2 independent replicates.

[3] = system: cardiac microtissues; test: ATP depletion (CellTiter Glo Luminescent Cell Viability Assay) in cardiac microtissues; format: cell-based, human; conditions: the concentration is the IC30 of ATP depletion, or cell death caused
Method: Cellular ATP concentrations were also assessed using the CellTiter Glo® Luminescent Cell Viability Assay as per the manufacturer’s instructions (Promega).

[4] = ref FDA label, cited from earlier work
[5] = system: cardiac microtissues; test: Transcriptomic profiling (mRNA-seq) and DESeq2 differential gene expression analysis in cardiac microtissues; conditions: absolute log2(Fold-Change) > 1, FDR p ≤ 0.05

CCN(CC)CCNC(=O)c1c(C)[nH]c(/C=C2\C(=O)Nc3ccc(F)cc32)c1C [Sunitinib Malate]
activation Z-score: Actin Cytoskeleton Signaling [1]: -3.317
activation Z-score: Actin Nucleation by ARP-WASP Complex [1]: -2.646
activation Z-score: Acute Phase Response Signaling [1]: -2.84
activation Z-score: Adrenomedullin signaling pathway [1]: -2.53
activation Z-score: Apelin Cardiac Fibroblast Signaling Pathway [1]: 2.236
activation Z-score: Apelin Liver Signaling Pathway [1]: -2.449
activation Z-score: Aryl Hydrocarbon Receptor Signaling [1]: -0.632
activation Z-score: Breast Cancer Regulation by Stathmin1 [1]: -3
activation Z-score: CD40 Signaling [1]: -2
activation Z-score: CLEAR Signaling Pathway [1]: -0.5
activation Z-score: Cardiac Hypertrophy Signaling (Enhanced) [1]: -3.53
activation Z-score: Cell Cycle: G2/M DNA Damage Checkpoint Regulation [1]: -3
activation Z-score: Colorectal Cancer Metastasis Signaling [1]: -3.578
activation Z-score: Cyclins and Cell Cycle Regulation [1]: 2.333
activation Z-score: ERK5 Signaling [1]: -2
activation Z-score: Endothelin-1 Signaling [1]: -2.496
activation Z-score: G-Protein Coupled Receptor Signaling [1]: -3.212
activation Z-score: GP6 Signaling Pathway [1]: -4.123
activation Z-score: Glioblastoma Multiforme Signaling [1]: -2.333
activation Z-score: HGF Signaling [1]: -2.333
activation Z-score: HIF1Î± Signaling [1]: -3.464
activation Z-score: HMGB1 Signaling [1]: -3.357
activation Z-score: Hepatic Fibrosis Signaling Pathway [1]: -4.768
activation Z-score: IL-6 Signaling [1]: -2.309
activation Z-score: IL-8 Signaling [1]: -3.051
activation Z-score: IL-13 Signaling Pathway [1]: -2.496
activation Z-score: IL-15 Production [1]: -2.449
activation Z-score: ILK Signaling [1]: -3.357
activation Z-score: Immunogenic Cell Death Signaling Pathway [1]: -2.646
activation Z-score: Inhibition of Angiogenesis by TSP1 [1]: -2
activation Z-score: Integrin Signaling [1]: -3.606
activation Z-score: Intrinsic Prothrombin Activation Pathway [1]: -2
activation Z-score: Kinetochore Metaphase Signaling Pathway [1]: 3.266
activation Z-score: LXR/RXR Activation [1]: 0.905
activation Z-score: Leukocyte Extravasation Signaling [1]: -2.065
activation Z-score: MIF Regulation of Innate Immunity [1]: -2
activation Z-score: MYC Mediated Apoptosis Signaling [1]: -1.633
activation Z-score: Macrophage Alternative Activation Signaling Pathway [1]: -2.558
activation Z-score: Oncostatin M Signaling [1]: -2.236
activation Z-score: Osteoarthritis Pathway [1]: -2.711
activation Z-score: Oxytocin Signaling Pathway [1]: -2.324
activation Z-score: PAK Signaling [1]: -2.236
activation Z-score: PPAR Signaling [1]: 2.646
activation Z-score: Pancreatic Adenocarcinoma Signaling [1]: -2.121
activation Z-score: Paxillin Signaling [1]: -2
activation Z-score: Production of Nitric Oxide and Reactive Oxygen Species in Macrophages [1]: -3.051
activation Z-score: Prostanoid Biosynthesis [1]: -2
activation Z-score: Pulmonary Fibrosis Idiopathic Signaling Pathway [1]: -5.692
activation Z-score: Pulmonary Healing Signaling Pathway [1]: -2.449
activation Z-score: Pyridoxal 5'-phosphate Salvage Pathway [1]: 1.342
activation Z-score: RAC Signaling [1]: -1.89
activation Z-score: RHOGDI Signaling [1]: 3.606
activation Z-score: Regulation Of The Epithelial Mesenchymal Transition By Growth Factors Pathway [1]: -4.243
activation Z-score: Regulation of Cellular Mechanics by Calpain Protease [1]: -2.236
activation Z-score: Regulation of eIF4 and p70S6K Signaling [1]: -1.342
activation Z-score: Renin-Angiotensin Signaling [1]: -2.449
activation Z-score: Ribonucleotide Reductase Signaling Pathway [1]: -1.291
activation Z-score: Role of JAK family kinases in IL-6-type Cytokine Signaling [1]: -2.668
activation Z-score: Role of NFAT in Cardiac Hypertrophy [1]: -3.162
activation Z-score: STAT3 Pathway [1]: -1.414
activation Z-score: Salvage Pathways of Pyrimidine Ribonucleotides [1]: 1.134
activation Z-score: Senescence Pathway [1]: -3.3
activation Z-score: Signaling by Rho Family GTPases [1]: -3.638
activation Z-score: TREM1 Signaling [1]: -2.646
activation Z-score: Type II Diabetes Mellitus Signaling [1]: -1.342
activation Z-score: White Adipose Tissue Browning Pathway [1]: -2.714
activation Z-score: Wound Healing Signaling Pathway [1]: -4.964
activation Z-score: iNOS Signaling [1]: -2.236
activity at 3.53 µM ([2]; gene ATAD3C, Run 1): 85.2%
activity at 3.53 µM ([2]; gene CDH13, Run 1): 81.7%
activity at 3.53 µM ([2]; gene CDH13, Run 2): 32.5%
activity at 3.53 µM ([2]; gene IL6, Run 1): 18.3%
activity at 3.53 µM ([2]; gene IL6, Run 2): 3.18%
activity at 3.53 µM ([2]; gene PTX3, Run 1): 46.8%
activity at 3.53 µM ([2]; gene PTX3, Run 2): 18.6%
activity at 3.53 µM ([2]; gene SLC7A5, Run 1): 87.2%
activity at 3.53 µM ([2]; gene SLC7A5, Run 2): 7.07%
activity at 3.53 µM ([2]; gene UCHL1, Run 1): 59.4%
activity at 3.53 µM ([2]; gene UCHL1, Run 2): 18.6%
2^-ΔΔCt of Individual reps, Treated 1 ([2]; gene ATAD3C, Run 1): 0.6771
2^-ΔΔCt of Individual reps, Treated 2 ([2]; gene ATAD3C, Run 1): 0.9498
2^-ΔΔCt of Individual reps, Treated 3 ([2]; gene ATAD3C, Run 1): 0.9298
Average 2^-ΔΔCt, Treated ([2]; gene ATAD3C, Run 1): 0.8522
2^-ΔΔCt of Individual reps, Treated 1 ([2]; gene CDH13, Run 1): 0.8001
2^-ΔΔCt of Individual reps, Treated 2 ([2]; gene CDH13, Run 1): 0.8203
2^-ΔΔCt of Individual reps, Treated 3 ([2]; gene CDH13, Run 1): 0.8552
Average 2^-ΔΔCt, Treated ([2]; gene CDH13, Run 1): 0.8252
2^-ΔΔCt of Individual reps, Treated 1 ([2]; gene CDH13, Run 2): 0.3506
2^-ΔΔCt of Individual reps, Treated 2 ([2]; gene CDH13, Run 2): 0.356
2^-ΔΔCt of Individual reps, Treated 3 ([2]; gene CDH13, Run 2): 0.3542
Average 2^-ΔΔCt, Treated ([2]; gene CDH13, Run 2): 0.3536
2^-ΔΔCt of Individual reps, Treated 1 ([2]; gene IL6, Run 1): 0.1962
2^-ΔΔCt of Individual reps, Treated 2 ([2]; gene IL6, Run 1): 0.1722
2^-ΔΔCt of Individual reps, Treated 3 ([2]; gene IL6, Run 1): 0.1837
Average 2^-ΔΔCt, Treated ([2]; gene IL6, Run 1): 0.184
2^-ΔΔCt of Individual reps, Treated 1 ([2]; gene IL6, Run 2): 0.1296
2^-ΔΔCt of Individual reps, Treated 2 ([2]; gene IL6, Run 2): 0.008
2^-ΔΔCt of Individual reps, Treated 3 ([2]; gene IL6, Run 2): 0.00254
Average 2^-ΔΔCt, Treated ([2]; gene IL6, Run 2): 0.04671
2^-ΔΔCt of Individual reps, Treated 1 ([2]; gene PTX3, Run 1): 0.5127
2^-ΔΔCt of Individual reps, Treated 2 ([2]; gene PTX3, Run 1): 0.4851
2^-ΔΔCt of Individual reps, Treated 3 ([2]; gene PTX3, Run 1): 0.4283
Average 2^-ΔΔCt, Treated ([2]; gene PTX3, Run 1): 0.4754
2^-ΔΔCt of Individual reps, Treated 1 ([2]; gene PTX3, Run 2): 0.364
2^-ΔΔCt of Individual reps, Treated 2 ([2]; gene PTX3, Run 2): 0.159
2^-ΔΔCt of Individual reps, Treated 3 ([2]; gene PTX3, Run 2): 0.09578
Average 2^-ΔΔCt, Treated ([2]; gene PTX3, Run 2): 0.2063
2^-ΔΔCt of Individual reps, Treated 1 ([2]; gene SLC7A5, Run 1): 0.9373
2^-ΔΔCt of Individual reps, Treated 2 ([2]; gene SLC7A5, Run 1): 0.8504
2^-ΔΔCt of Individual reps, Treated 3 ([2]; gene SLC7A5, Run 1): 0.8586
Average 2^-ΔΔCt, Treated ([2]; gene SLC7A5, Run 1): 0.8821
2^-ΔΔCt of Individual reps, Treated 1 ([2]; gene SLC7A5, Run 2): 0.1881
2^-ΔΔCt of Individual reps, Treated 2 ([2]; gene SLC7A5, Run 2): 0.06312
2^-ΔΔCt of Individual reps, Treated 3 ([2]; gene SLC7A5, Run 2): 0.06588
Average 2^-ΔΔCt, Treated ([2]; gene SLC7A5, Run 2): 0.1057
2^-ΔΔCt of Individual reps, Treated 1 ([2]; gene UCHL1, Run 1): 0.6206
2^-ΔΔCt of Individual reps, Treated 2 ([2]; gene UCHL1, Run 1): 0.6021
2^-ΔΔCt of Individual reps, Treated 3 ([2]; gene UCHL1, Run 1): 0.5702
Average 2^-ΔΔCt, Treated ([2]; gene UCHL1, Run 1): 0.5976
2^-ΔΔCt of Individual reps, Treated 1 ([2]; gene UCHL1, Run 2): 0.3214
2^-ΔΔCt of Individual reps, Treated 2 ([2]; gene UCHL1, Run 2): 0.1175
2^-ΔΔCt of Individual reps, Treated 3 ([2]; gene UCHL1, Run 2): 0.1882
Average 2^-ΔΔCt, Treated ([2]; gene UCHL1, Run 2): 0.209
Transcriptomic high concentration (µM) = IC30 of ATP depletion [3]: 3.53 µM
Structural cardiotoxin? ([4]; FDA label references heart failure or a decrease in left ventricular ejection fraction): Y
Functional cardiotoxin? ([4]; compound annotation): Y
number of significant differentially expressed genes, 6hr high ([5]; 6 hr, high concentration): 10
number of significant differentially expressed genes, 6hr low ([5]; 6 hr, low concentration): 0
number of significant differentially expressed genes, 48hr high ([5]; 48 hr, high concentration): 861
number of significant differentially expressed genes, 48hr low ([5]; 48 hr, low concentration): 399
number of significant differentially expressed genes, 72hr high ([5]; 72 hr, high concentration): 152
number of significant differentially expressed genes, 72hr low ([5]; 72 hr, low concentration): 71
